Laboratory results as given in patent US4388304A, “Angiotensin-II analogues with antagonizing effects, containing an ester group in position 8, and a process for the preparation thereof” (Richter Gedeon Vegyeszeti Gyar RT, priority 1980, dated 1983).

Tested on: narcotized male cats
Experiment: Antagonism of Hypertensin (angiotensin-II) infusion-induced blood pressure rise in narcotized male cats
Assay type: in vivo, cat
Method: The antagonistic effects of the new compounds of the general formula (I) were investigated on narcotized male cats. After treating the animals with a ganglion blocking agent and bisecting the cervical vagus nerves on both side, an infusion of Hypertensin (CIBA) was given to the animals at a rate of 0.5 μg/kg/min. When the blood pressure of the animals reached a steady, increased level, the substance to be tested was administered either intravenously or subcutaneously in physiological saline solution or as an aqueous solution which also contained a carrier. The blood pressure drop was measured in mm Hg units, and the extent of decrease was expressed in percent related to the value before treatment. The statistical evaluation was performed on the basis of the blood pressure differences, by Student's single sample "t" test. The term "duration of effect" denotes the period elapsed until the observation of the last, still significant (p=5%) blood pressure difference.

[1] = s.c., physiological saline, dose 100 μg/kg
[2] = s.c., carboxymethyl cellulose (CMC), dose 50 μg/kg
[3] = s.c., carboxymethyl cellulose (CMC), dose 100 μg/kg
[4] = s.c., physiological saline, dose 50 μg/kg
[5] = s.c., carboxymethyl cellulose (CMC), dose 200 μg/kg

SMILES | blood pressure decrease, percent related to the value before treatment (i.v., dose 20 μg/kg) | duration of effect (i.v., dose 20 μg/kg) | blood pressure decrease, percent related to the value before treatment [1] | duration of effect [1] | blood pressure decrease, percent related to the value before treatment [2] | duration of effect [2] | blood pressure decrease, percent related to the value before treatment [3] | duration of effect [3] | blood pressure decrease, percent related to the value before treatment (s.c., gelatine, dose 200 μg/kg) | duration of effect (s.c., gelatine, dose 200 μg/kg) | blood pressure decrease, percent related to the value before treatment [4] | duration of effect [4] | blood pressure decrease, percent related to the value before treatment (i.v., dose 10 μg/kg) | also measured
CC[C@H](C)[C@H](NC(=O)[C@H](Cc1ccc(O)cc1)NC(=O)[C@@H](NC(=O)[C@H](CCCNC(=N)N)NC(=O)CNC)C(C)C)C(=O)N[C@@H](Cc1c[nH]cn1)C(=O)N1CCC[C@H]1C(=O)N[C@H](C(=O)OC)[C@@H](C)OC [(Sar^1,Thr/Me/--OMe^8)-Ang-II, (sarcosine^1, threonine/Me/methyl ester^8)-angiotensin-II] | 12% | 12 min | 27% | 45 min |  |  |  |  |  |  |  |  |  | 
CC[C@H](C)[C@H](NC(=O)[C@H](Cc1ccc(O)cc1)NC(=O)[C@@H](NC(=O)[C@H](CCCNC(=N)N)NC(=O)CNC)C(C)C)C(=O)N[C@@H](Cc1c[nH]cn1)C(=O)N1CCC[C@H]1C(=O)N[C@H](C(=O)OC)[C@@H](C)CC [(Sar^1,Ile--OMe^8)-Ang-II, (sarcosine^1, isoleucine methyl ester^8)angiotensin-II] | 21% | 25 min | 25% | 240 min | 9% | .phi. | 17% | 200 min | 23% | 300 min | 8% | 180 min |  | blood pressure decrease, percent related to the value before treatment (i.v., dose 40 μg/kg): 20%; duration of effect (i.v., dose 40 μg/kg): 38 min; blood pressure decrease, percent related to the value before treatment (s.c., gelatine, dose 100 μg/kg): 5%; duration of effect (s.c., gelatine, dose 100 μg/kg): 15 min
CC[C@H](C)[C@H](NC(=O)[C@H](Cc1ccc(O)cc1)NC(=O)[C@@H](NC(=O)[C@H](CCCNC(=N)N)NC(=O)CNC)C(C)C)C(=O)N[C@@H](Cc1c[nH]cn1)C(=O)N1CCC[C@H]1C(=O)N[C@@H](C)C(=O)OC [(Sar^1,Ala--OMe^8)-Ang-II, (sarcosine^1, alanine methyl ester^8)-angiotensin-II] | 29% | 60 min | 20% | 45 min | 11% | 22 min | 18% | 22 min |  |  | 20% | 45 min | 18% | duration of effect (i.v., dose 10 μg/kg): 12 min
CNCC(=O)N[C@@H](CCCN=C(N)N)C(=O)N[C@H](C(=O)N[C@@H](Cc1ccc(O)cc1)C(=O)N[C@H](C(=O)N[C@@H](Cc1cnc[nH]1)C(=O)N1CCC[C@H]1C(=O)N[C@@H](C)C(=O)O)C(C)C)C(C)C [Saralasin, (Sar^1, Ala^8)-angiotensin-II, reference compound] |  |  | 29% |  |  |  | 23% | 45 min | 23% | .phi. |  |  | 32% | blood pressure decrease, percent related to the value before treatment [5]: 28%; duration of effect [5]: 90 min; blood pressure decrease, percent related to the value before treatment (s.c., physiological saline, dose 200 μg/kg): 24%
